Values quoted from earlier work in patent US11017689B2, “Very low nicotine cigarette blended with very low THC cannabis” (priority 2018, dated 2021).

Assays:
[1] = system: nicotinic acetylcholine receptors (nAChRs)
[2] = system: nicotine self-administration; conditions: rats
[3] = administered orally to rats
[4] = nicotine in tobacco smoke, inhaled

## c1cncc([C@@H]2CCCCN2)c1 [anabasine]
[1]
  affinity for nicotinic acetylcholine receptors (nAChRs): affinity
[2]
  dose-effect function on nicotine self-administration: biphasic
[2]; 2.0 mg/kg of anabasine
  reduction of nicotine infusions per session: over 50%
[2]; pretreatment with 0.02 mg/kg anabasine
  increase in nicotine self-administration: 25%

## C1=CCC(c2cccnc2)NC1 (centres unmarked) [anatabine]
[1]
  affinity for nicotinic acetylcholine receptors (nAChRs): affinity
[2]; pretreatment with 2.0 mg/kg anatabine
  reduction of nicotine self-administration: nearly half
[3]
  elimination half-life relative to that of nicotine: 2 to 2.5 fold

## CN1CCCC1c1cccnc1 (centres unmarked) [nicotine]
[4]
  time from inhaling the smoke until nicotine reaches the brain: approximately ten
